Values quoted from earlier work, collected in US7166608B2, “N-aroyl piperazine derivatives as orexin receptor antagonists” (SmithKline Beecham p.l.c., priority 2001, dated 2007).

Columns and labels:
rat sleep/EEG = conditions: central administration at the onset of the normal sleep period
freely-feeding rats = conditions: central administration, 4 hour time period

orexin-A: peptide ligand (agonist) of the orexin receptors; human sequence given in the 1st table (EPLPDCCRQKTCSCRLYELLHGAGNHAAGILTLNH; Human orexin A)
effect on arousal and sleep (rat sleep/EEG): dose-related increase in arousal
increase in food intake over control rats receiving vehicle (freely-feeding rats): approximately four-fold
